From ChEMBL document CHEMBL1201862, “PubChem BioAssay data set” (2004) come the findings set out here.

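48-hour exposure; five concentrations; linearly interpolated endpoints. The concentration for 50% growth inhibition is given as GI50.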 The source made the active and inactive calls. Cut-off read from the data, not from the text of the source: active = GI50 up to about 1.1 µM and inactive = higher. A value given as a limit tells only on which side of the number the result lay.

Some test systems named below: Hs-578T; MDA-MB-231; SF-539; CAKI-1; HOP-62; RXF 393; MCF7; MOLT-4; NCI-H522; SR; NCI-H23; LOX IMVI; TK-10; HT-29; MDA-N; SF-268; T47D; A498; HCC 2998; SW-620.
Assay in all cases: NCI-60 cell line screen, 48 h

As for `COc1c(O)ccc2c1CN1CCc3cc4c(cc3C1C2)OCO4` (stereo not given), the GI50 with Hs-578T was 27.4 µM (inactive); in the test with MDA-MB-231 it was 29.3 µM (inactive); with SF-539, 40 µM (inactive); in the test on CAKI-1, 38.3 µM (inactive); with HOP-62, 36.4 µM (inactive); in the test with RXF 393 it was 12.6 µM (inactive). Moreover, the GI50 in the test on MCF7 was 21.6 µM (inactive); in the test with MOLT-4 it was 2.43 µM (inactive); in the test with NCI-H522, 7.43 µM (inactive); in the test on SR, 0.441 µM (active); with NCI-H23 it was 36.2 µM (inactive); with LOX IMVI, 22.8 µM (inactive). Further, the GI50 was 28.9 µM (inactive) in the test on TK-10; 32.7 µM (inactive) with HT-29; 26.4 µM (inactive) in the test with MDA-N; 37 µM (inactive) in the test with SF-268; 20.9 µM (inactive) with T47D; 20.8 µM (inactive) in the test on A498. Besides, the values for the GI50 with HCC 2998 and in the test with SW-620 were 31.6 µM (inactive) and 29.9 µM (inactive), respectively.
Consider `C/C=C/[C@@H]1[C@H]2C(=O)[C@]3(Cl)[C@@H](/C=C/C)[C@@H]3C(=O)[C@@]12Cl`, for which the GI50 in the test on Hs-578T is 35.2 µM (inactive); in the test on MDA-MB-231, 94.2 µM (inactive); in the test on SF-539, > 100 µM (inactive); in the test with CAKI-1 it was > 100 µM (inactive); in the test with HOP-62 it was 33.7 µM (inactive); in the test with RXF 393, 55.3 µM (inactive). Further, the GI50 in the test on MCF7 is > 100 µM (inactive); in the test with MOLT-4 it was 7.16 µM (inactive); with NCI-H522, > 100 µM (inactive); in the test on SR, > 100 µM (inactive); in the test with NCI-H23, > 100 µM (inactive); in the test with LOX IMVI, > 100 µM (inactive). The GI50 in the test on TK-10, in the test on HT-29, with MDA-N, with SF-268, in the test with T47D and in the test with A498 was > 100 µM (inactive) throughout. Also, the GI50 in the test with HCC 2998 and in the test with SW-620 was > 100 µM (inactive) each time.
As for `N#Cc1c(-c2ccccc2)cc(Nc2ccc(F)cc2)n2c1nc1ccccc12`, the GI50 is < 0.01 µM (active) in the test on Hs-578T; 3.83 µM (inactive) with MDA-MB-231; 3.26 µM (inactive) with SF-539; 3.2 µM (inactive) in the test on CAKI-1; 2.83 µM (inactive) in the test on HOP-62; 2.66 µM (inactive) in the test on RXF 393. The GI50 in the test with MCF7 was 2.18 µM (inactive); in the test with MOLT-4, 7.03 µM (inactive); in the test on NCI-H522 it was 1.95 µM (inactive); in the test on SR, 3.89 µM (inactive); in the test on NCI-H23, 3.18 µM (inactive); in the test with LOX IMVI, 3.33 µM (inactive). Besides, the GI50 in the test on TK-10 was 3.55 µM (inactive); in the test with HT-29, 2.26 µM (inactive); in the test on MDA-N, 2.28 µM (inactive); with SF-268 it was 3.72 µM (inactive); with T47D it was 1.88 µM (inactive); with A498 it was 2.74 µM (inactive). The GI50 with HCC 2998 was 3.75 µM (inactive); in the test on SW-620, 4.08 µM (inactive).
Consider `CC(C)Cc1cc2c(cc1O)CCC1C2CC[C@@]2(C)C1CC[C@@H]2O` (stereo not given in full), for which the GI50 in the test with Hs-578T was 6.19 µM (inactive); in the test with MDA-MB-231, 7.59 µM (inactive); with SF-539, 19.5 µM (inactive); with CAKI-1 it was 16 µM (inactive); with HOP-62, 11.6 µM (inactive); in the test with RXF 393, 4.35 µM (inactive). The GI50 in the test with MCF7 was 8.43 µM (inactive); in the test on MOLT-4, 3.5 µM (inactive); in the test with NCI-H522, 6.25 µM (inactive); in the test on SR, 3.85 µM (inactive); in the test with NCI-H23 it was 8.39 µM (inactive); with LOX IMVI, 6.22 µM (inactive). The GI50 with TK-10 was 9.48 µM (inactive); in the test with HT-29, 8.02 µM (inactive); with MDA-N, 7.05 µM (inactive); in the test with SF-268, 10.8 µM (inactive); in the test with T47D it was 5.04 µM (inactive); with A498 it was 18.3 µM (inactive). In addition, the GI50 with HCC 2998 is 13.1 µM (inactive); in the test on SW-620, 8.65 µM (inactive).
Consider `CC1=C2C(=O)c3ccccc3C(=O)[C@H]2[C@H]2CCO[C@H]2O1`, for which the GI50 was 41.7 µM (inactive) in the test on Hs-578T; 24.2 µM (inactive) with MDA-MB-231; 22.1 µM (inactive) in the test with SF-539; 22.2 µM (inactive) in the test on CAKI-1; 21.3 µM (inactive) in the test with HOP-62; 14.4 µM (inactive) in the test on RXF 393. The GI50 is 0.3 µM (active) with MCF7; 30.5 µM (inactive) with MOLT-4; 16.3 µM (inactive) with NCI-H522; 35.2 µM (inactive) in the test on SR; 20.1 µM (inactive) with NCI-H23; 22.3 µM (inactive) with LOX IMVI. Moreover, the GI50 with TK-10 is 28.5 µM (inactive); in the test on HT-29, 31.2 µM (inactive); with MDA-N it was 19.2 µM (inactive); in the test with SF-268, 17.7 µM (inactive); in the test with T47D, 34.7 µM (inactive); in the test with A498, > 100 µM (inactive). The results for the GI50 with HCC 2998 and in the test with SW-620 were 19.4 µM (inactive) and 21.1 µM (inactive), respectively.
In the case of `CC[C@@H]1CC[C@@H]2[C@H](CC[C@]3(C)[C@@H](O[N+](=O)[O-])CC[C@@H]23)[C@H]1C(C)=O`, the GI50 with Hs-578T is 44.7 µM (inactive); in the test on MDA-MB-231 it was 11.8 µM (inactive); in the test with SF-539 it was 38.3 µM (inactive); in the test with CAKI-1 it was 50.7 µM (inactive); with HOP-62 it was 46.3 µM (inactive); in the test on RXF 393, 28.2 µM (inactive). Moreover, the GI50 was 23.8 µM (inactive) with MCF7; 24.3 µM (inactive) with MOLT-4; 28.8 µM (inactive) in the test with NCI-H522; 25.6 µM (inactive) in the test on SR; 28.1 µM (inactive) with NCI-H23; 20 µM (inactive) with LOX IMVI. For the same molecule, the GI50 in the test on TK-10 was > 100 µM (inactive); in the test on HT-29, 13.1 µM (inactive); in the test with MDA-N it was 28.9 µM (inactive); in the test with SF-268, 24.5 µM (inactive); in the test with T47D, 12.9 µM (inactive); with A498 it was 31 µM (inactive). Besides, the GI50 with HCC 2998 was 28 µM (inactive); in the test on SW-620 it was 40.4 µM (inactive).
On to `O=C(CC(=O)N1N=C(N2CCCCC2)CC1c1ccccc1)Nc1ccccc1` (stereo not given), for which the GI50 with Hs-578T, with MDA-MB-231, in the test on SF-539, with CAKI-1, in the test on HOP-62 and in the test on RXF 393 was > 100 µM (inactive) each time. Also, the GI50 in the test on MCF7, in the test on MOLT-4, with NCI-H522, in the test with SR, in the test with NCI-H23 and in the test on LOX IMVI was > 100 µM (inactive) in each case. Also, the GI50 in the test on TK-10, in the test on HT-29, in the test with MDA-N, with SF-268, in the test with T47D and in the test with A498 was > 100 µM (inactive) in each case. For the same molecule, the GI50 in the test on HCC 2998 and in the test with SW-620 was > 100 µM (inactive) throughout.
With `COc1cc(CNC(=O)CCCCCCCCCCSSCCCCCCCCCCC(=O)NCc2ccc(O)c(OC)c2)ccc1O`, the GI50 in the test with Hs-578T was > 10 µM (inactive); in the test with MDA-MB-231 it was > 10 µM (inactive); in the test on SF-539, > 10 µM (inactive); with CAKI-1, > 10 µM (inactive); with HOP-62, > 10 µM (inactive); in the test with RXF 393, 0.184 µM (active). Besides, the GI50 was > 10 µM (inactive) in the test on MCF7; > 10 µM (inactive) in the test with MOLT-4; 0.918 µM (active) with NCI-H522; > 10 µM (inactive) with SR; > 10 µM (inactive) in the test on NCI-H23; > 10 µM (inactive) with LOX IMVI. Further, the GI50 with TK-10, in the test with HT-29, in the test with MDA-N, with SF-268, in the test with T47D and in the test on A498 was > 10 µM (inactive) each time. In addition, the GI50 in the test on HCC 2998 and in the test on SW-620 was > 10 µM (inactive) each time.
As for `CCOC(=O)C(Cc1ccc(O)cc1)Nc1nc(=O)c2c(=O)oc(Cl)cc2o1` (stereo not given), the GI50 with Hs-578T was 3.07 µM (inactive); in the test with MDA-MB-231, 6.1 µM (inactive); in the test on SF-539, 5.79 µM (inactive); with CAKI-1 it was 4.73 µM (inactive); in the test on HOP-62, 12.5 µM (inactive); in the test on RXF 393, 4.38 µM (inactive). Further, the GI50 in the test on MCF7 was 4.16 µM (inactive); with MOLT-4, 2.81 µM (inactive); in the test on NCI-H522, 4.13 µM (inactive); in the test with SR, 2.7 µM (inactive); in the test with NCI-H23, 10.9 µM (inactive); with LOX IMVI, 4.62 µM (inactive). The GI50 in the test with TK-10 was 6.58 µM (inactive); with HT-29 it was 3.52 µM (inactive); in the test on MDA-N, 2.85 µM (inactive); in the test on SF-268, 3.82 µM (inactive); in the test on T47D it was 4.61 µM (inactive); in the test on A498, 18.2 µM (inactive). Moreover, the GI50 was 6.59 µM (inactive) in the test on HCC 2998 and 3.18 µM (inactive) in the test with SW-620.
As for `C[N+]12C=CC=C1C(N1CCCC1)c1scc(-c3ccc(Br)cc3)c12` (stereo not given), the GI50 in the test with Hs-578T was 1.98 µM (inactive); with MDA-MB-231, 23.9 µM (inactive); in the test with SF-539, 4 µM (inactive); with CAKI-1, > 62.5 µM (inactive); with HOP-62 it was 14.8 µM (inactive); in the test with RXF 393, 10.2 µM (inactive). The GI50 in the test with MCF7 was 22.9 µM (inactive); with MOLT-4 it was 15.8 µM (inactive); with NCI-H522, 1.64 µM (inactive); in the test with SR it was 4.81 µM (inactive); with NCI-H23, 3.49 µM (inactive); in the test with LOX IMVI, 25.5 µM (inactive). In addition, the GI50 with TK-10 was 91.2 µM (inactive); with HT-29 it was 22.2 µM (inactive); in the test with MDA-N, 27 µM (inactive); in the test on SF-268, 3.15 µM (inactive); in the test with T47D it was 4.61 µM (inactive); with A498, 47.2 µM (inactive). Further, the GI50 in the test on HCC 2998 was 12.4 µM (inactive); with SW-620, 41.2 µM (inactive).
